Assay [1] has as its target T1, human muscarinic M3 receptor (Homo sapiens (Human), UniProt P20309). Description: Antagonism assay on human muscarinic M3 receptor (carbachol-induced intracellular calcium, FLIPR Calcium 5, transfected Cos-7 cells). In kind it is cell-based. As to conditions: functional inhibitory constant; carbachol-induced intracellular calcium in Cos-7 cells transfected with human M3 receptor. The protocol:
[Experimental Example 2] Antagonism Assay on Human Muscarinic M3 Receptor
The antagonism assay for various compounds of the present invention was conducted on antagonism to human M3 receptor in Cos-7 cells that was transfected with plasmid coding human muscarinic M3 receptor. Test compounds in various concentrations were pre-treated to the cells for 3 minutes, and then the changes of intracellular calcium were measured after treating the same with carbachol (i.e. muscarinic receptor agonist). The FLIPR® Calcium 5 assay (Molecular Devices) and Flex3 device (Molecular Devices) were used to measure concentration of calcium. Amounts of calcium before and after carbachol treatment were set as 0% and 100% respectively. Inhibition rates (%) by the compounds for increase in intracellular calcium by carbachol were calculated. The antagonistic potency of the test compounds on human muscarinic M3 receptor was calculated as the functional inhibitory constant (Ki), which can be calculated from concentration (IC50) of compound inhibiting 50% of activity of carbachol according to Cheng and Prusoff equation.
(A change in cytosolic calcium serves as a functional read-out for many receptors and channels.)

In assay [2] the target is T1, human muscarinic M3 receptor. Description: Binding assay on human muscarinic M3 receptor ([3H]-methyl scopolamine displacement). As to conditions: membranes overexpressing human M3 receptor, Ki from IC50 by Cheng-Prusoff, read-out: Binding Affinity to M3 Receptor, Ki. The gist of the method: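 Displacement of [3H]-methyl scopolamine from membranes overexpressing human M3, in Tris-HCl, 25 °C, 120 min; filter-bound radioactivity counted. Nonspecific binding with 5 μM atropine; Ki from IC50 via Cheng-Prusoff.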

The source of these data is US9828339B2, “Biphenyl derivatives and methods for preparing same” (DONG-A ST CO., LTD, priority 2013, dated 2017).

A word on the Ki: it is a dissociation constant, usually derived from enzyme kinetics or from competition with a known ligand.

Some results are limits rather than exact numbers.

T1 sequence (P20309 whole entry): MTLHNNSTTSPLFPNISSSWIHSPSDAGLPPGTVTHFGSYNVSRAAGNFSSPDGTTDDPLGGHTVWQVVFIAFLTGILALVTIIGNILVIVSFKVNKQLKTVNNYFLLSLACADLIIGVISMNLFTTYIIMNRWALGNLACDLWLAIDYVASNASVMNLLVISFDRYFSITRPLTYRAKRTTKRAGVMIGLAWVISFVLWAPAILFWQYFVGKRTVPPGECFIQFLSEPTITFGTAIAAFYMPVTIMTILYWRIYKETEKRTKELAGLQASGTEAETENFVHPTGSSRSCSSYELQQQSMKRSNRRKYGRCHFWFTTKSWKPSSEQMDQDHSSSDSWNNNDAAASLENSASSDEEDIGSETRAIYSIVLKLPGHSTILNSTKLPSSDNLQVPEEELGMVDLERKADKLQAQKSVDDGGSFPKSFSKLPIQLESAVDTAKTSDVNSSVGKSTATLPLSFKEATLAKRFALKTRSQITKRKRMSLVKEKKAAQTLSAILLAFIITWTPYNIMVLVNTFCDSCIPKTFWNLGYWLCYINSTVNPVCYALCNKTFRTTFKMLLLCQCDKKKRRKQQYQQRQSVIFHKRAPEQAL

For `CN1CCCC1CCOC(=O)Nc1ccc(F)cc1-c1ccccc1` (centres unmarked) [Example 21, 2-(1-methylpyrrolidin-2-yl)ethyl(5-fluoro-[1,1′-biphenyl]-2-yl)carbamate], the inhibitory constant (Ki) in assay [1] amounted to 0.49 nM; in assay [2], 2.25 nM. In the same order, the values of `CN1CCCC1CCOC(=O)Nc1ccccc1-c1ccc(F)c(Cl)c1` (centres unmarked) [Example 41, 2-(1-methylpyrrolidin-2-yl)ethyl(3′-chloro-4′-fluoro-[1,1′-biphenyl]-2-yl)carbamate] are 0.18 nM and 2.45 nM. For `CN1CCCC1CCOC(=O)Nc1ccc(F)cc1-c1ccc(F)c(F)c1` (centres unmarked) [Example 42, 2-(1-methylpyrrolidin-2-yl)ethyl(3′,4′,5-trifluoro-[1,1′-biphenyl]-2-yl)carbamate], in that order: 1.19 nM and 9.21 nM. With `CN1CCCC1CCOC(=O)Nc1ccc(F)cc1-c1cc(Cl)c(F)c(Cl)c1` (centres unmarked) [Example 56, 2-(1-methylpyrrolidin-2-yl)ethyl(3′,5′-dichloro-4′,5-difluoro-[1,1′-biphenyl]-2-yl)carbamate], the Ki in assay [1] came to 10 nM; in assay [2], 12.5 nM. In the same order, the values of `CN1CCCC1CCOC(=O)Nc1ccc(F)cc1-c1ccc(O)c(Cl)c1` (centres unmarked) [Example 58, 2-(1-methylpyrrolidin-2-yl)ethyl(3′-chloro-5-fluoro-4′-hydroxy-[1,1′-biphenyl]-2-yl)carbamate] are 4.7 nM and 26.3 nM. For `CN1CCCC1CCOC(=O)Nc1ccc(Cl)cc1-c1cccc(F)c1` (centres unmarked) [Example 67, 2-(1-Methylpyrrolidin-2-yl)ethyl(5-chloro-3′-fluoro-[1,1′-biphenyl]-2-yl)carbamate], the Ki was 11.9 nM in assay [1] and 16.3 nM in assay [2]. In the same order, the values of `CN1CCCC1CCOC(=O)Nc1ccc(Cl)cc1-c1ccc(F)cc1` (centres unmarked) [Example 68, 2-(1-Methylpyrrolidin-2-yl)ethyl(5-chloro-4′-fluoro-[1,1′-biphenyl]-2-yl)carbamate] are 13.2 nM and 13.2 nM. In the same order, the values of `CN1CCCC1CCOC(=O)Nc1ccc(O)cc1-c1ccc(F)c(Cl)c1` (centres unmarked) [Example 77, 2-(1-methylpyrrolidin-2-yl)ethyl (3′-chloro-4′-fluoro-5-hydroxy-[1,1′-biphenyl]-2-yl)carbamate] are 10 nM and 22 nM. For `CN1CC[C@@H](COC(=O)Nc2ccccc2-c2ccc(F)cc2)C1` [Example 114, (R)-(1-methylpyrrolidin-3-yl)methyl(4′-fluoro-[1,1′-biphenyl]-2-yl)carbamate], in that order: 0.58 nM and 4.23 nM.

In the case of `CN1CC[C@@H](COC(=O)Nc2ccccc2-c2ccc(F)c(F)c2)C1` [Example 115, (R)-(1-methylpyrrolidin-3-yl)methyl(3′,4′-difluoro-[1,1′-biphenyl]-2-yl)carbamate], the Ki came out at 0.32 nM in assay [1] and 7.49 nM in assay [2]. For `CN1CC[C@H](COC(=O)Nc2ccccc2-c2cccc(F)c2)C1` [Example 116, (S)-(1-methylpyrrolidin-3-yl)-methyl (3′-fluoro-[1,1′-biphenyl]-2-yl)carbamate], in that order: 1.21 nM and 12.6 nM. `CN1CC[C@H](COC(=O)Nc2ccccc2-c2cccc(Cl)c2)C1` [Example 118, (S)-(1-methylpyrrolidin-3-yl)methyl(3′-chloro-[1,1′-biphenyl]-2-yl)carbamate]: the inhibition constant Ki in assay [1] was found to be 0.77 nM; in assay [2] it was 2.42 nM. In the same order, the values of `CN1CC[C@H](COC(=O)Nc2ccccc2-c2cc(F)cc(Cl)c2)C1` [Example 120, (S)-(1-methylpyrrolidin-3-yl)methyl(3′-chloro-5′-fluoro-[1,1′-biphenyl]-2-yl)carbamate] are 1.03 nM and 9.7 nM.

`CN1CC[C@H](COC(=O)Nc2ccc(F)cc2-c2cc(Cl)cc(Cl)c2)C1` [Example 126, (S)-(1-methylpyrrolidin-3-yl)methyl(3′,5′-dichloro-5-fluoro-[1,1′-biphenyl]-2-yl)carbamate]: the Ki is 17.5 nM in assay [1] and 24.8 nM in assay [2]. In the same order, the values of `CN1CC[C@@H](COC(=O)Nc2ccccc2-c2ccc(Cl)c(Cl)c2)C1` [Example 130, (R)-(1-methylpyrrolidin-3-yl)-methyl (3′,4′-dichloro-[1,1′-biphenyl]-2-yl)carbamate] are 1.14 nM and 2.1 nM. On to `CN1CC[C@@H](COC(=O)Nc2ccccc2-c2cc(F)cc(Cl)c2)C1` [Example 132, (R)-(1-methylpyrrolidin-3-yl)methyl(3′-chloro-5′-fluoro-[1,1′-biphenyl]-2-yl)carbamate], for which the results for the Ki in assay [1] and in assay [2] were 0.75 nM and 4.64 nM, respectively. For `CN1CC[C@@H](COC(=O)Nc2ccc(F)cc2-c2cc(Cl)cc(Cl)c2)C1` [Example 135, (R)-(1-methylpyrrolidin-3-yl)methyl(3′,5′-dichloro-5-fluoro-[1,1′-biphenyl]-2-yl)carbamate], in that order: 16.5 nM and 24.1 nM. In the same order, the values of `CN1CC[C@@H](COC(=O)Nc2ccc(F)cc2-c2ccc(F)cc2)C1` [Example 141, (R)-(1-methylpyrrolidin-3-yl)methyl(4′,5-difluoro-[1,1′-biphenyl]-2-yl)carbamate] are 0.35 nM and 7.57 nM. In the same order, the values of `CN1CC[C@@H](COC(=O)Nc2ccc(F)cc2-c2ccccc2F)C1` [Example 144, (R)-(1-methylpyrrolidin-3-yl)methyl(2′,5-difluoro-[1,1′-biphenyl]-2-yl)carbamate] are 1.42 nM and 17.2 nM. On to `CN1CCC[C@H]1COC(=O)Nc1ccccc1-c1cc(F)cc(Cl)c1` [Example 148, (S)-(1-methylpyrrolidin-2-yl)methyl(3′-chloro-5′-fluoro-[1,1′-biphenyl]-2-yl)carbamate], for which the values for the Ki in assay [1] and in assay [2] were 2.22 nM and 10.2 nM, respectively. In the same order, the values of `CN1CCC[C@H]1COC(=O)Nc1ccccc1-c1ccc(F)c(Cl)c1` [Example 149, (S)-(1-methylpyrrolidin-2-yl)methyl(3′-chloro-4′-fluoro-[1,1′-biphenyl]-2-yl)carbamate] are 0.1 nM and 1.57 nM. Turning to `CN1CCC[C@H]1COC(=O)Nc1ccc(F)cc1-c1cccc(C(F)(F)F)c1F` [Example 214, (S)-(1-methylpyrrolidin-2-yl)methyl(2′,5-difluoro-3′-(trifluoromethyl)-[1,1′-biphenyl]-2-yl)carbamate], the Ki in assay [2] is greater than 1000 nM.

For `CN1CCC[C@H]1COC(=O)Nc1ccc(F)cc1-c1cc(Cl)cc(C(F)(F)F)c1` [Example 215, (S)-(1-methylpyrrolidin-2-yl)methyl(3′-chloro-5-fluoro-5′-(trifluoromethyl)-[1,1′-biphenyl]-2-yl)carbamate], in assay [2], the Ki was greater than 1000 nM. For `CN1CCC[C@H]1COC(=O)Nc1ccc(F)cc1-c1cc(O)cc(Cl)c1` [Example 216, (S)-(1-methylpyrrolidin-2-yl)methyl(3′-chloro-5-fluoro-5′-hydroxy-[1,1′-biphenyl]-2-yl)carbamate], the Ki in assay [2] was 60.1 nM.

For `COc1cc(Cl)cc(-c2cc(F)ccc2NC(=O)OC[C@@H]2CCCN2C)c1` [Example 217, (S)-(1-methylpyrrolidin-2-yl)methyl (3′-chloro-5-fluoro-5′-methoxy-[1,1′-biphenyl]-2-yl)carbamate], in assay [2], the Ki turned out to be 223 nM.

Turning to `CN1CCC[C@H]1COC(=O)Nc1ccc(F)cc1-c1ccc(C(F)(F)F)cc1C(F)(F)F` [Example 218, (S)-(1-methylpyrrolidin-2-yl)methyl(5-fluoro-2′,4′-bis(trifluoromethyl)-[1,1′-biphenyl]-2-yl)carbamate], the Ki in assay [2] was greater than 1000 nM. Same read-out and setting: the value for `CCOc1cccc(-c2cc(F)ccc2NC(=O)OC[C@@H]2CCCN2C)c1` [Example 219, (S)-(1-methylpyrrolidin-2-yl)methyl(3′-ethoxy-5-fluoro-[1,1′-biphenyl]-2-yl)carbamate] was greater than 1000 nM. With `COc1ccc(-c2cc(F)ccc2NC(=O)OC[C@@H]2CCCN2C)cc1OC` [Example 220, (S)-(1-methylpyrrolidin-2-yl)methyl (5-fluoro-3′,4′-dimethoxy-[1,1′-biphenyl]-2-yl)carbamate], in assay [2], the Ki is greater than 1000 nM.

Regarding `COc1cc(OC)cc(-c2cc(F)ccc2NC(=O)OC[C@@H]2CCCN2C)c1` [Example 221, (S)-(1-methylpyrrolidin-2-yl)methyl(5-fluoro-3′,5′-dimethoxy-[1,1′-biphenyl]-2-yl)carbamate], the Ki in assay [2] is greater than 1000 nM.

With `COc1ccc(NC(=O)OC[C@@H]2CCCN2C)c(-c2ccccc2)c1` [Example 222, (S)-(1-methylpyrrolidin-2-yl)methyl(5-methoxy-[1,1′-biphenyl]-2-yl)carbamate], the Ki in assay [2] is 28.3 nM.

`COc1ccc(NC(=O)OC[C@@H]2CCCN2C)c(-c2cccc(F)c2)c1` [Example 223, (S)-(1-methylpyrrolidin-2-yl)methyl(3′-fluoro-5-methoxy-[1,1′-biphenyl]-2-yl)carbamate]: the Ki in assay [2] was 121 nM.

In the case of `COc1ccc(NC(=O)OC[C@@H]2CCCN2C)c(-c2ccc(Cl)c(Cl)c2)c1` [Example 225, (S)-(1-methylpyrrolidin-2-yl)methyl (3′,4′-dichloro-5-methoxy-[1,1′-biphenyl]-2-yl)carbamate], the Ki in assay [2] worked out at 53.6 nM.
